Results taken from US20250092353A1, “COMMENSAL FUNGUS AND USES THEREOF” (YEDA RESEARCH AND DEVELOPMENT CO. LTD., priority 2022, published 2025).

Legend:
[1] = Biolog Phenotype MicroArrays for chemical sensitivity (PM21-PM25); format: cell-based; conditions: compared to C. albicans; normalized AUC of growth
Method: FIGS. 2A-2F include micrographs, graphs, a plot, and a curve showing in vitro culture characteristics of K. weizmannii. (2A) Representative images of C. albicans and K. weizmannii in liquid media in presence of filament-inducing conditions, n=3 independent experiments. (2B) A graph showing largest differences in growth between K. weizmannii and C. albicans with different carbon sources, based on a z-score > or <2. Differences were calculated using the normalized area under the curve (AUC) of K. weizmannii and C. albicans. Normalization of the AUC are based on the growth of both species with glucose. Size of data points corresponds to the normalized AUC of K. weizmannii with the corresponding carbon source. All measurements were done using the Biolog Phenotype MicroArrays in biological triplicates. […] The data points are color-coded according to the different types of carbon sources. (2C) A graph showing the largest differences in growth between K. weizmannii and C. albicans with different nitrogen sources, based on a z-score greater than or less than 2. Differences were calculated using AUC of K. weizmannii and C. albicans and normalized based on the growth of both species with glutamine. […] GFP expressing C. albicans was detected by flowcytometry to discriminate between fungi, n=2 independent experiments.

[2] = Fungal-mediated pathology in cortisone 21-acetate immunosuppressed colonized mice; format: in vivo; conditions: cortisone 21-acetate 225 mg/kg s.c. every other day
Method: (§1) Stably fungal-colonized mice were 5×s.c injected with 225 mg kg-1 with cortisone 21-acetate, following the scheme of injection every other day as described previously (Solis and Filler, 2012). Mice were monitored for weight loss. Following sacrifice, organs and feces were collected for histological examination, flow cytometry and fungal cultivations). If the weight dropped […], mice were sacrificed according to IACUC protocol.
(§2) Mice were euthanized and intestines, kidneys and tongue were excised and fixed overnight in 4% paraformaldehyde at 4° C. Paraffin embedding and sectioning was performed by the institutional histology unit. For immunohistochemistry of gut samples, slides were deparaffinized by 2 washes of Xylene followed by 100%, 96%, 70% EtOH and three washes with PBS. Slides were incubated for 30 minutes in 1% hydrogen peroxide in PBS at room temperature in the dark. After washing three times in PBS, slides were boiled for 10 minutes in Citric acid buffer pH 6.0 (10 mM citric acid and 0.05% Tween-20 in DDW), then washed with PBS three times. […] For histopathology of typical tongue or kidney fungal lesions in the mouse model of immunosuppression, paraffin sections were stained with periodic acid-Schiff (PAS) or H&E and slides were captured using a Panoramic SCAN II (3DHISTECH) and analyzed using CaseViewer software (3DHISTECH).

C2BBe1 cells = assay: Epithelial cell co-culture cytotoxicity (LDH assay); format: cell-based
Method: Quantification of cytotoxicity (LDH assay). Differentiated C2BBe1 cells in 96-well plates were infected for a defined time period with 10^4 C. albicans, S. cerevisiae and K. weizmannii. cells/well. After coincubation, epithelial damage was quantified by measuring LDH release using a cytotoxicity detection kit (Roche) according to the manufacturer's instructions.

serum IgA and IgG = assay: In vitro serum antibody binding assay (sera of colonized mice); format: in vivo; conditions: single-colonized animals
Method: Blood was collected from mice at rested at RT for 1 hour, followed by centrifugation 2,000 g 10 min. Serum supernatant was collected and froze at −80° C. until use. Cultured fungi were normalized to OD600=1 in PBS supplemented with 1% bovine serum albumin and 0.01% sodium azide (PBA solution). Cultured fungi were incubated with 20× diluted mouse serum on ice for 45 minutes, then washed twice with PBA, followed by staining with anti-mouse IgA and IgG. Samples were recorded on Cytek Aurora and analyzed in FlowJo (Treestar). Antibody binding intensity was normalized to the negative controls. Isotype control, non-stained and no-serum were used as negative controls.

C. albicans = assay: Candidiasis in immunosuppressed C. albicans-colonized mice given Kazachstania-supplemented drinking water; format: in vivo
Method: as §1
For enumerating the number of recoverable C. albicans and K. weizmannii colony forming units, individual fecal pellets or each tissue from mice was sterilely dissected, weighed, and homogenized in sterile DDW. Serial dilutions on the organ homogenate were spread onto YPD media plates and the number of individual colonies enumerated after incubation at 37° C. for 24 hours.
as §2, with “times. Next, slides were blocked in BP buffer (0.3% Triton X-100, 2% horse serum and 1% bovine serum albumin in PBS) for 1 h, then incubated overnight at 4° C. with a 1:200 dilution of the primary antibody (anti-Candida) in BP buffer.” for “times.”

Substance: Kazachstania weizmannii [K. weizmannii]
- resistance to chemical inhibitors, azoles [1]: relative resistance to propriconazole and fucinazole
- sensitivity to chemical inhibitors, chlorides and bromides [1]: more sensitive to chlorides and bromides
- weight loss and fungal spread [2]: neither weight loss nor evidence of fungal spread
- protection from C. albicans-induced EC damage (C2BBe1 cells; co-infection with K. weizmannii and C. albicans): did not prevent EC damage
- EC damage / viability (LDH release) (C2BBe1 cells; single fungus co-culture): did not affect EC viability
- anti-fungal serum IgA and IgG titers (serum IgA and IgG): induced robust anti-fungal serum IgA and IgG titers in most animals
- C. albicans in feces of colonized animals (C. albicans; Kazachstania-supplemented drinking water prior to immunosuppression): efficiently expelled C. albicans from colonized animals
- weight loss and systemic yeast spread (kidney colonization) (C. albicans; immunosuppressed C. albicans-colonized animals exposed to K. weizmannii): significantly delayed the weight loss and systemic yeast spread
- durability of protection (C. albicans; prolonged immunosuppressive treatment): not permanently protected
